# Measurements reported in ChEMBL document CHEMBL1146816, “Design, synthesis, and evaluation of estradiol-linked genotoxicants as anti-cancer agents” (Bioorg Med Chem Lett, 2004).
# Tested on: not listed separately
# Test: Percent of 16-mer cleaved by piperidine after treatment with test compound for 24 hr at 37 degrees C
# Format: functional
# Details: not given
row,Compound,Oligo modified [%]
1,C[C@]12CC[C@@H]3c4ccc(O)cc4C[C@@H](CCCCCC/N=C(/N)NCCCc4ccc(N(CCCl)CCCl)cc4)[C@H]3[C@@H]1CC[C@@H]2O,58
2,C[C@]12CC[C@@H]3c4ccc(O)cc4C[C@@H](CCCCCCNC(=O)CCCNC(=O)CCCc4ccc(N(CCCl)CCCl)cc4)[C@H]3[C@@H]1CC[C@@H]2O,39
3,C[C@]12CC[C@@H]3c4ccc(O)cc4C[C@@H](CCCCCCNCCCCc4ccc(N(CCCl)CCCl)cc4)[C@H]3[C@@H]1CC[C@@H]2O,44
4,C[C@]12CC[C@@H]3c4ccc(O)cc4C[C@@H](CCCCCCNCCOC(=O)NCCCc4ccc(N(CCCl)CCCl)cc4)[C@H]3[C@@H]1CC[C@@H]2O,45
5,C[C@]12CC[C@@H]3c4ccc(O)cc4C[C@@H](CCCCCCNCCCCNCCCCc4ccc(N(CCCl)CCCl)cc4)[C@H]3[C@@H]1CC[C@@H]2O,79
6,C[C@]12CC[C@@H]3c4ccc(O)cc4C[C@@H](CCCCCCOC(=O)NCCCc4ccc(N(CCCl)CCCl)cc4)[C@H]3[C@@H]1CC[C@@H]2O,3
7,C[C@]12CC[C@@H]3c4ccc(O)cc4C[C@@H](CCCCCCNCC/N=C(/N)NCCCc4ccc(N(CCCl)CCCl)cc4)[C@H]3[C@@H]1CC[C@@H]2O,29
8,C[C@]12CC[C@@H]3c4ccc(O)cc4C[C@@H](CCCCCCNC(=O)CCCc4ccc(N(CCCl)CCCl)cc4)[C@H]3[C@@H]1CC[C@@H]2O,14

# Tested on: not listed separately
# Test: LogD at pH 7.4
# Format: physicochemical
# Details: buffer
row,Compound,logD
1,C[C@]12CC[C@@H]3c4ccc(O)cc4C[C@@H](CCCCCC/N=C(/N)NCCCc4ccc(N(CCCl)CCCl)cc4)[C@H]3[C@@H]1CC[C@@H]2O,2.52
2,C[C@]12CC[C@@H]3c4ccc(O)cc4C[C@@H](CCCCCCNC(=O)CCCNC(=O)CCCc4ccc(N(CCCl)CCCl)cc4)[C@H]3[C@@H]1CC[C@@H]2O,4.85
3,C[C@]12CC[C@@H]3c4ccc(O)cc4C[C@@H](CCCCCCNCCCCc4ccc(N(CCCl)CCCl)cc4)[C@H]3[C@@H]1CC[C@@H]2O,2.87
4,C[C@]12CC[C@@H]3c4ccc(O)cc4C[C@@H](CCCCCCNCCOC(=O)NCCCc4ccc(N(CCCl)CCCl)cc4)[C@H]3[C@@H]1CC[C@@H]2O,2.22
5,C[C@]12CC[C@@H]3c4ccc(O)cc4C[C@@H](CCCCCCNCCCCNCCCCc4ccc(N(CCCl)CCCl)cc4)[C@H]3[C@@H]1CC[C@@H]2O,2.22
6,C[C@]12CC[C@@H]3c4ccc(O)cc4C[C@@H](CCCCCCOC(=O)NCCCc4ccc(N(CCCl)CCCl)cc4)[C@H]3[C@@H]1CC[C@@H]2O,5.61
7,C[C@]12CC[C@@H]3c4ccc(O)cc4C[C@@H](CCCCCCNCC/N=C(/N)NCCCc4ccc(N(CCCl)CCCl)cc4)[C@H]3[C@@H]1CC[C@@H]2O,3.12
8,C[C@]12CC[C@@H]3c4ccc(O)cc4C[C@@H](CCCCCCNC(=O)CCCc4ccc(N(CCCl)CCCl)cc4)[C@H]3[C@@H]1CC[C@@H]2O,5.07

# Tested on: MCF7
# Test: Dose required for 30% clonal survival of ER positive MCF-7 breast cancer cells after 2 hr
# Format: functional, Homo sapiens
# Details: not given
row,Compound,ED30 [µM]
1,C[C@]12CC[C@@H]3c4ccc(O)cc4C[C@@H](CCCCCC/N=C(/N)NCCCc4ccc(N(CCCl)CCCl)cc4)[C@H]3[C@@H]1CC[C@@H]2O,>20
2,C[C@]12CC[C@@H]3c4ccc(O)cc4C[C@@H](CCCCCCNC(=O)CCCNC(=O)CCCc4ccc(N(CCCl)CCCl)cc4)[C@H]3[C@@H]1CC[C@@H]2O,>20
3,C[C@]12CC[C@@H]3c4ccc(O)cc4C[C@@H](CCCCCCNCCCCc4ccc(N(CCCl)CCCl)cc4)[C@H]3[C@@H]1CC[C@@H]2O,5.1
4,C[C@]12CC[C@@H]3c4ccc(O)cc4C[C@@H](CCCCCCNCCOC(=O)NCCCc4ccc(N(CCCl)CCCl)cc4)[C@H]3[C@@H]1CC[C@@H]2O,5.1
5,C[C@]12CC[C@@H]3c4ccc(O)cc4C[C@@H](CCCCCCNCCCCNCCCCc4ccc(N(CCCl)CCCl)cc4)[C@H]3[C@@H]1CC[C@@H]2O,5.1
6,C[C@]12CC[C@@H]3c4ccc(O)cc4C[C@@H](CCCCCCOC(=O)NCCCc4ccc(N(CCCl)CCCl)cc4)[C@H]3[C@@H]1CC[C@@H]2O,>20
7,C[C@]12CC[C@@H]3c4ccc(O)cc4C[C@@H](CCCCCCNCC/N=C(/N)NCCCc4ccc(N(CCCl)CCCl)cc4)[C@H]3[C@@H]1CC[C@@H]2O,>20
8,C[C@]12CC[C@@H]3c4ccc(O)cc4C[C@@H](CCCCCCNC(=O)CCCc4ccc(N(CCCl)CCCl)cc4)[C@H]3[C@@H]1CC[C@@H]2O,>20

# Tested on: MDA-MB-231
# Test: Dose required for 30% clonal survival of ER negative MDA-MB-231 breast cancer cells after 2 hr
# Format: functional, Homo sapiens
# Details: not given
row,Compound,ED30 [µM]
1,C[C@]12CC[C@@H]3c4ccc(O)cc4C[C@@H](CCCCCC/N=C(/N)NCCCc4ccc(N(CCCl)CCCl)cc4)[C@H]3[C@@H]1CC[C@@H]2O,>20
2,C[C@]12CC[C@@H]3c4ccc(O)cc4C[C@@H](CCCCCCNC(=O)CCCNC(=O)CCCc4ccc(N(CCCl)CCCl)cc4)[C@H]3[C@@H]1CC[C@@H]2O,>20
3,C[C@]12CC[C@@H]3c4ccc(O)cc4C[C@@H](CCCCCCNCCCCc4ccc(N(CCCl)CCCl)cc4)[C@H]3[C@@H]1CC[C@@H]2O,8.6
4,C[C@]12CC[C@@H]3c4ccc(O)cc4C[C@@H](CCCCCCNCCOC(=O)NCCCc4ccc(N(CCCl)CCCl)cc4)[C@H]3[C@@H]1CC[C@@H]2O,9.6
5,C[C@]12CC[C@@H]3c4ccc(O)cc4C[C@@H](CCCCCCNCCCCNCCCCc4ccc(N(CCCl)CCCl)cc4)[C@H]3[C@@H]1CC[C@@H]2O,7.9
6,C[C@]12CC[C@@H]3c4ccc(O)cc4C[C@@H](CCCCCCOC(=O)NCCCc4ccc(N(CCCl)CCCl)cc4)[C@H]3[C@@H]1CC[C@@H]2O,>20
7,C[C@]12CC[C@@H]3c4ccc(O)cc4C[C@@H](CCCCCCNCC/N=C(/N)NCCCc4ccc(N(CCCl)CCCl)cc4)[C@H]3[C@@H]1CC[C@@H]2O,>20
8,C[C@]12CC[C@@H]3c4ccc(O)cc4C[C@@H](CCCCCCNC(=O)CCCc4ccc(N(CCCl)CCCl)cc4)[C@H]3[C@@H]1CC[C@@H]2O,20

# Target: Estrogen receptor (Homo sapiens) (UniProt Q92731+P03372)
# Test: Percent of covalently modified 16-mer (DNA adduct) in a slowly migrating complex with ER ligand binding domain (ER-LBD) in EMSA electrophoretic mobility shift assay
# Format: functional
# Details: not given
row,Compound,Oligo shifted [%]
1,C[C@]12CC[C@@H]3c4ccc(O)cc4C[C@@H](CCCCCC/N=C(/N)NCCCc4ccc(N(CCCl)CCCl)cc4)[C@H]3[C@@H]1CC[C@@H]2O,38
2,C[C@]12CC[C@@H]3c4ccc(O)cc4C[C@@H](CCCCCCNCCCCc4ccc(N(CCCl)CCCl)cc4)[C@H]3[C@@H]1CC[C@@H]2O,67
3,C[C@]12CC[C@@H]3c4ccc(O)cc4C[C@@H](CCCCCCNCCOC(=O)NCCCc4ccc(N(CCCl)CCCl)cc4)[C@H]3[C@@H]1CC[C@@H]2O,93
4,C[C@]12CC[C@@H]3c4ccc(O)cc4C[C@@H](CCCCCCNCCCCNCCCCc4ccc(N(CCCl)CCCl)cc4)[C@H]3[C@@H]1CC[C@@H]2O,38
5,C[C@]12CC[C@@H]3c4ccc(O)cc4C[C@@H](CCCCCCNCC/N=C(/N)NCCCc4ccc(N(CCCl)CCCl)cc4)[C@H]3[C@@H]1CC[C@@H]2O,93

# Tested on: not listed separately
# Test: Partition coefficient (logP)
# Format: physicochemical
# Details: octanol/water
row,Compound,logP
1,C[C@]12CC[C@@H]3c4ccc(O)cc4C[C@@H](CCCCCC/N=C(/N)NCCCc4ccc(N(CCCl)CCCl)cc4)[C@H]3[C@@H]1CC[C@@H]2O,5.67
2,C[C@]12CC[C@@H]3c4ccc(O)cc4C[C@@H](CCCCCCNC(=O)CCCNC(=O)CCCc4ccc(N(CCCl)CCCl)cc4)[C@H]3[C@@H]1CC[C@@H]2O,4.85
3,C[C@]12CC[C@@H]3c4ccc(O)cc4C[C@@H](CCCCCCNCCCCc4ccc(N(CCCl)CCCl)cc4)[C@H]3[C@@H]1CC[C@@H]2O,5.96
4,C[C@]12CC[C@@H]3c4ccc(O)cc4C[C@@H](CCCCCCNCCOC(=O)NCCCc4ccc(N(CCCl)CCCl)cc4)[C@H]3[C@@H]1CC[C@@H]2O,5.32
5,C[C@]12CC[C@@H]3c4ccc(O)cc4C[C@@H](CCCCCCNCCCCNCCCCc4ccc(N(CCCl)CCCl)cc4)[C@H]3[C@@H]1CC[C@@H]2O,5.32
6,C[C@]12CC[C@@H]3c4ccc(O)cc4C[C@@H](CCCCCCOC(=O)NCCCc4ccc(N(CCCl)CCCl)cc4)[C@H]3[C@@H]1CC[C@@H]2O,5.61
7,C[C@]12CC[C@@H]3c4ccc(O)cc4C[C@@H](CCCCCCNCC/N=C(/N)NCCCc4ccc(N(CCCl)CCCl)cc4)[C@H]3[C@@H]1CC[C@@H]2O,6.27
8,C[C@]12CC[C@@H]3c4ccc(O)cc4C[C@@H](CCCCCCNC(=O)CCCc4ccc(N(CCCl)CCCl)cc4)[C@H]3[C@@H]1CC[C@@H]2O,5.07
